Reference: patent publication US12590067B2, “Herbicidal cyclohexanedione derivatives” (SYNGENTA CROP PROTECTION AG, priority 2019, dated 2026)

How the values were obtained:
Experiment in all cases: Glasshouse herbicidal test, pre- and post-emergence, percentage damage to the plant
Assay type in all cases: in vivo
[1] = tested on: Alopecurus myosuroides (ALOMY); settings: 250 g/h, evaluated after 13 days; for ALOMY POST percentage damage caused to the plant (five-point scale): post-emergence; for ALOMY PRE percentage damage caused to the plant (five-point scale): pre-emergence
Description: (§1) Seeds of a variety of test species are sown in standard soil in pots (Lolium perenne (LOLPE), Setaria faberi (SETFA), Alopecurus myosuroides (ALOMY), Echinochloa crus-galli (ECHCG), Avena fatua (AVEFA)). After cultivation for one day (pre-emergence) or after 8 days cultivation (post-emergence) under controlled conditions in a glasshouse (at 24/16° C., day/night; 14 hours light; 65% humidity), the plants are sprayed with an aqueous spray solution derived from the formulation of the technical active ingredient in acetone/water (50:50) solution containing 0.5% Tween 20 (polyoxyethelyene sorbitan monolaurate, CAS RN 9005-64-5). Compounds are applied at 250 g/h. The test plants are then grown in a glasshouse under controlled conditions in a glasshouse (at 24/16° C., day/night; 14 hours light; 65% humidity) and watered twice daily. After 13 days for pre and post-emergence, the test is evaluated for the percentage damage caused to the plant. The biological activities are shown in the following table on a five-point scale (5=80-100%; 4=60-79%; 3=40-59%; 2=20-39%; 1=0-19%).

[2] = tested on: Echinochloa crus-galli (ECHCG); settings: 250 g/h, evaluated after 13 days; for ECHCG POST percentage damage caused to the plant (five-point scale): post-emergence; for ECHCG PRE percentage damage caused to the plant (five-point scale): pre-emergence
Description: as §1

Avena fatua (AVEFA) = settings: 250 g/h, evaluated after 13 days; for AVEFA POST percentage damage caused to the plant (five-point scale): post-emergence; for AVEFA PRE percentage damage caused to the plant (five-point scale): pre-emergence
Description: as §1

Setaria faberi (SETFA) = settings: 250 g/h, evaluated after 13 days; for SETFA POST percentage damage caused to the plant (five-point scale): post-emergence; for SETFA PRE percentage damage caused to the plant (five-point scale): pre-emergence
Description: as §1

Lolium perenne (LOLPE) = settings: 250 g/h, evaluated after 13 days; for LOLPE POST percentage damage caused to the plant (five-point scale): post-emergence; for LOLPE PRE percentage damage caused to the plant (five-point scale): pre-emergence
Description: as §1

Compound | ALOMY POST percentage damage caused to the plant (five-point scale) [1] | ALOMY PRE percentage damage caused to the plant (five-point scale) [1] | ECHCG POST percentage damage caused to the plant (five-point scale) [2] | ECHCG PRE percentage damage caused to the plant (five-point scale) [2] | AVEFA POST percentage damage caused to the plant (five-point scale) (Avena fatua (AVEFA)) | AVEFA PRE percentage damage caused to the plant (five-point scale) (Avena fatua (AVEFA)) | SETFA POST percentage damage caused to the plant (five-point scale) (Setaria faberi (SETFA)) | SETFA PRE percentage damage caused to the plant (five-point scale) (Setaria faberi (SETFA)) | LOLPE POST percentage damage caused to the plant (five-point scale) (Lolium perenne (LOLPE)) | LOLPE PRE percentage damage caused to the plant (five-point scale) (Lolium perenne (LOLPE))
CC#Cc1cc(Cl)c(C2C(=O)CC3(CCN(C(=O)CC#N)CC3)CC2=O)c(Cl)c1 [Compound A15] | 5 (5=80-100%) | 5 (5=80-100%) | 5 (5=80-100%) | 5 (5=80-100%) | 5 (5=80-100%) | 5 (5=80-100%) | 5 (5=80-100%) | 5 (5=80-100%) | 5 (5=80-100%) | 5 (5=80-100%)
CC#Cc1cc(Cl)c(C2C(=O)CC3(CCN(C(=O)NC(C)(C)C)CC3)CC2=O)c(OC)c1 [Compound A6] | 5 (5=80-100%) | 5 (5=80-100%) | 5 (5=80-100%) | 5 (5=80-100%) | 5 (5=80-100%) | 5 (5=80-100%) | 5 (5=80-100%) | 5 (5=80-100%) | 5 (5=80-100%) | 5 (5=80-100%)
CC#Cc1cc(Cl)c(C2C(=O)CC3(CCN(C(=O)NC(=O)C(C)(C)C)CC3)CC2=O)c(OC)c1 [Compound A7] | 5 (5=80-100%) | 5 (5=80-100%) | 5 (5=80-100%) | 5 (5=80-100%) | 5 (5=80-100%) | 5 (5=80-100%) | 5 (5=80-100%) | 5 (5=80-100%) | 5 (5=80-100%) | 5 (5=80-100%)
CC#Cc1cc(Cl)c(C2C(=O)CC3(CCN(C(=O)NC(=O)c4ccccn4)CC3)CC2=O)c(OC)c1 [Compound A11] | 5 (5=80-100%) | 5 (5=80-100%) | 5 (5=80-100%) | 5 (5=80-100%) | 5 (5=80-100%) | 3 (3=40-59%) | 5 (5=80-100%) | 5 (5=80-100%) | 5 (5=80-100%) | 5 (5=80-100%)
CC#Cc1cc(Cl)c(C2C(=O)CC3(CCN(C(=O)C(C)(C)C)CC3)CC2=O)c(OC)c1 [Compound A10] | 5 (5=80-100%) | 5 (5=80-100%) | 5 (5=80-100%) | 5 (5=80-100%) | 5 (5=80-100%) | 5 (5=80-100%) | 5 (5=80-100%) | 5 (5=80-100%) | 5 (5=80-100%) | 5 (5=80-100%)
